Counter-ions that a name gives are not always drawn. Like-named read-outs stand apart in the source and are kept apart here.
Columns and labels:
[1] = tested on: isolated right ventricular trabecule of dog heart; experiment: Extracellular electrophysiological measurements: impulse conduction time and effective refractory period; parameters: species or system mongrel dogs; settings: for activation at 10 µM: Canis lupus familiaris; for effect on impulse conduction (in words) / effect on effective refractory period (in words): concentrations of Table 1
Procedure: Right ventricular trabecules were prepared from the heart of mongrel dogs (weighing 5 to 10 kg each). The surviving heart pieces were placed into an organ bath (37° C.) containing modified Tyrode's nutrient medium and excited by point stimulation with a basal frequency of 1 Hz. Extracellular bipolar platinum electrodes were placed on the surface of the preparations, by means of which the propagation of the superficial potentials were registered; thus, the determination of the time of impulse conduction or the rate of impulse conduction, respectively, and the effective refractory period (ERP) became possible. During our experiments,the frequency of stimulation was temporarily varied from 0.5 Hz up to 3 Hz. The tested compounds were directly added to the organ bath after dilution of the stock solution according to the desired final concentration.

[2] = tested on: right ventricular papillary muscle of dogs; experiment: Intracellular microelectrode technique: action potential parameters, ventricular papillary muscle; parameters: species or system mongrel dogs; settings: for Trecovery (recovery time constant of Vmax): Gy: kinetics of rapid restoration; for effect on duration of the action potential (in words) / effect on Vmax (in words): concentrations of Table 2; for effect on Vmax (in words): rapid recovery kinetics
Procedure: The method used is essentially in agreement with the method of Papp et al. [J. Cardiovascular Pharmacol. Ther. 1, 287-296 (1996)].
Right ventricular papillary muscle and Purkinje's fibres were prepared from the hearts of mongrel dogs (weighing 5 to 10 kg each). The preparations were placed into an organ bath (37° C.) containing modified Tyrode's nutrient medium. The preparations were excited by a basal frequency of 1 Hz. During the experiments, the frequency of stimulation was varied under broad limits by a computer-guided stimulator. The intracellular action potentials were registered by using glass capillary microelectrodes filled with 3 N potassium chloride solution (standard intracellular microelectrode techniques). The resting potential (RP), the amplitude of the action potential (APA) as well as the duration of the action potential (APD) were measured by using an IBM 386 compatible computer by means of an own-developed software. The compounds under test were directly added into the organ bath after dilution of the stock solutions according to the final concentrations desired. The effects of the compounds were observed after an incubation time of 30 to 40 minutes.

[3] = 10 μM, 1 Hz, read-out: Prolongation (%) of ERP
[4] = 10 μM, 1 Hz, read-out: Prolongation (%) of impulse conduction time
[5] = 10 μM, 3 Hz, read-out: Prolongation (%) of ERP
[6] = 10 μM, 3 Hz, read-out: Prolongation (%) of impulse conduction time

| Structure (SMILES) | activation at 10 µM [1, 3] | activation at 10 µM [1, 4] | activation at 10 µM [1, 5] | activation at 10 µM [1, 6] | APA (amplitude of the action potential) ([2]; 5 μM) | APD50 (time of 50% repolarization) ([2]; 5 μM) | APD90 (time of 90% repolarization) ([2]; 5 μM) | RP (resting potential) ([2]; 5 μM) | Recovery Ampl ([2]; 5 μM) | Recovery Ampl/Plateau ([2]; 5 μM) | Recovery Plateau ([2]; 5 μM) | Vmax (maximum rate of depolarization) ([2]; 5 μM) | Trecovery (recovery time constant of Vmax) ([2]; 5 μM) | effect on duration of the action potential (in words) [2] | effect on Vmax (in words) [2] | other results |
| --- | --- | --- | --- | --- | --- | --- | --- | --- | --- | --- | --- | --- | --- | --- | --- | --- |
| Cc1cccc(C)c1OCC(C)N.Cl (centres unmarked) [Mexiletine, 2-(2,6-dimethylphenoxy)-1-methylethylamine hydrochloride, reference compound] | – | – | – | – | – | – | – | – | – | – | – | – | – | – | – | activation at 10 µM ([1]; read-out: Prolongation (%) of ERP, 10 μM, 1 Hz): -1.9 ± 1.7%; activation at 10 µM ([1]; read-out: Prolongation (%) of ERP, 10 μM, 3 Hz): 8.9%; activation at 10 µM ([1]; read-out: Prolongation (%) of impulse conduction time, 10 μM, 1 Hz): 3.9%; activation at 10 µM ([1]; read-out: Prolongation (%) of impulse conduction time, 10 μM, 3 Hz): 18.8%; effect on impulse conduction (in words) [1]: exerted an effect mainly on impulse conduction; APA (amplitude of the action potential) ([2]; 10 μM): 115 mV; APD50 (time of 50% repolarization) ([2]; 10 μM): 244 ms; APD90 (time of 90% repolarization) ([2]; 10 μM): 270 ms; RP (resting potential) ([2]; 10 μM): -92 mV; Recovery Ampl ([2]; 10 μM): 84.0 V/s; Recovery Ampl/Plateau ([2]; 10 μM): 0.45; Recovery Plateau ([2]; 10 μM): 186.5 V/s; Vmax (maximum rate of depolarization) ([2]; 10 μM): 193 V/s; Trecovery (recovery time constant of Vmax) ([2]; 10 μM): 214.1 ms |
| Cc1cccc(C)c1OC[C@H](C)N(C)CCc1ccc(NS(C)(=O)=O)cc1 [Example 16, (S)-N-[4-[2-[N-Methyl-N-[2-(2,6-dimethylphenoxy)-1-methylethyl]amino]ethyl]pbenyl]methanesulfonamide hydrochloride] | 10.7% | 26.9% | 14.3% | 39.7% | 105 mV | 195 ms | 244 ms | -86 mV | 75.8 V/s | 0.39 | 196.4 V/s | 199 V/s | 249.5 ms | simultaneous prolongation of duration of the action potential (APD) | mexiletine-like inhibition of Vmax | effect on effective refractory period (in words) [1]: simultaneous prolongation of the effective refractory period (ERP); effect on impulse conduction (in words) [1]: significantly prolonged the time of impulse conduction in a frequency-dependent manner; difference between the effects of Example 15 and its enantiomers (in words) ([2]; 5 μM): No essential difference could be observed |
| Cc1cccc(C)c1OCC(C)N(C)CCc1ccc(NC(=O)c2ccccc2)cc1 (centres unmarked) [Example 25, N-[4-[2-[N-Methyl-N-[2-(2,6-dimethylphenoxy)-1-methylethyl]amino]ethyl]phenyl]benzamide hydrochloride] | 11.7% | 18.8% | 17% | 18.8% | – | – | – | – | – | – | – | – | – | – | – | – |
| Cc1cccc(C)c1OCC(C)NCCc1ccc(NS(C)(=O)=O)cc1.Cl (centres unmarked) [Example 22, N-[4-[2-[N-[2-(2,6-Dimethylphenoxy)-1-methylethyl]amino]-ethyl]phenyl]methanesulfonamide hydrochloride] | 12.3% | 22.6% | 18.1% | 28.3% | 100 mV | 215 ms | 260 ms | -80 mV | 136.3 V/s | 0.58 | 232.8 V/s | 159 V/s | 337.8 ms | simultaneous prolongation of duration of the action potential (APD) | mexiletine-like inhibition of Vmax | – |
| Cc1ccccc1OCC(C)N(C)CCc1ccc(NS(C)(=O)=O)cc1 (centres unmarked) [Example 18, N-[4-[2-[N-Methyl-N-[2-(2-methylphenoxy)-1-methylethyl]-amino]ethyl]phenyl]methanesulfonamide hydrochloride] | 9.9% | 18.5% | 14% | 21.7% | – | – | – | – | – | – | – | – | – | – | – | – |
| Cc1cccc(C)c1OCCCN(C)CCc1ccc(NS(C)(=O)=O)cc1 [Example 23, N-[4-[2-[N-Methyl-N-[3-(2,6-dimethylphenoxy)propyl]amino]-ethyl]phenyl]methanesulfonamide hydrochloride] | 10.8% | 25% | 14.9% | 25% | – | – | – | – | – | – | – | – | – | – | – | – |
| CN(CCOc1ccc(NS(C)(=O)=O)cc1)CCc1ccc(NS(C)(=O)=O)cc1 [Dofetilide, N-[4-[2-[N-methyl-N-[2-(4-methanesulfonamidophenoxy)ethyl]-amino]ethyl]phenyl]methanesulfonamide, reference compound] | – | – | – | – | – | – | – | – | – | – | – | – | – | – | – | APA (amplitude of the action potential) ([2]; 1 μM): 96 mV; APD50 (time of 50% repolarization) ([2]; 1 μM): 218 ms; APD90 (time of 90% repolarization) ([2]; 1 μM): 252 ms; RP (resting potential) ([2]; 1 μM): -76 mV; Vmax (maximum rate of depolarization) ([2]; 1 μM): 212 V/s |
| CC(=O)Nc1ccc(CCN(C)C(C)COc2c(C)cccc2C)cc1 (centres unmarked) [Example 26, N-[4-[2-[N-Methyl-N-[2-(2,6-dimethylphenoxy)-1-methylethyl]amino]ethyl]phenyl]acetamide sesquihydrochloride monohydrate] | – | – | – | – | 105 mV | 200 ms | 250 ms | -80 mV | 120.9 V/s | 0.62 | 195.9 V/s | 195 V/s | 199 ms | simultaneous prolongation of duration of the action potential (APD) | mexiletine-like inhibition of Vmax | – |
| Cc1ccc(C)c(OCC(C)N(C)CCc2ccc(NS(C)(=O)=O)cc2)c1 (centres unmarked) [Example 20, N-[4-[2-[N-Metbyl-N-[2-(2,5-dimethylphenoxy)-1-methylethyl]amino]ethyl]phenyl]methanesulfonamide hydrochloride] | 8.4% | 20.3% | 12.6% | 24.5% | – | – | – | – | – | – | – | – | – | – | – | – |
| Cc1cccc(C)c1OCCCCN(C)CCc1ccc(NS(C)(=O)=O)cc1.Cl [Example 24, N-[4-[2-[N-Methyl-N-[4-(2,6-dimethylphenoxy)butyl]amino]ethyl]phenyl]methanesulfonamide hydrochloride] | 13.8% | 69% | 18.4% | 82.9% | – | – | – | – | – | – | – | – | – | – | – | effect on effective refractory period (in words) [1]: simultaneous prolongation of the effective refractory period (ERP); effect on impulse conduction (in words) [1]: significantly prolonged the time of impulse conduction in a frequency-dependent manner |
| Cc1ccccc1OCCN(C)CCc1ccc(NS(C)(=O)=O)cc1.Cl [Example 14, N-[4-[2-[N-Methyl-N-[2-(2-methylphenoxy)ethyl]amino]ethyl]-phenyl]methanesulfonamide hydrochloride] | – | – | – | – | 114 mV | 214 ms | 257 ms | -90 mV | 58.7 V/s | 0.25 | 231.8 V/s | 232 V/s | 111.4 ms | simultaneous prolongation of duration of the action potential (APD) | mexiletine-like inhibition of Vmax | – |
| CNC(=S)Nc1ccc(CCN(C)C(C)COc2c(C)cccc2C)cc1 (centres unmarked) [Example 27, 1-Methyl-3-[4-[2-[N-methyl-N-[2-(2,6-dimethylphenoxy)-1-methylethyl]amino]ethyl]phenyl]thiourea sesquihydrochloride hemihydrate] | – | – | – | – | 88 mV | 210 ms | 250 ms | -71 mV | 78 V/s | 0.53 | 147.9 V/s | 117 V/s | 161.8 ms | simultaneous prolongation of duration of the action potential (APD) | mexiletine-like inhibition of Vmax | – |
